Read-outs that look alike come from different tables or passages of the source.
Key:
[1] = target: Kv1.3 (Homo sapiens, UniProt P22001); details: cited from earlier work
[2] = tested on: peripheral blood mononuclear cells; assay: [3H]-thymidine incorporation (proliferation), anti-CD3 stimulated; type: cell-based; details: Homo sapiens, PBMC; Table 9; 5 ng/ml anti-CD3 Ab for 48 h
Text: [^3H]-thymidine incorporation is a widely used test to assay the proliferative activity of human and rodent lymphocytes. As cells divide [^3H]-thymidine will be incorporated into the newly synthesised DNA of the resulting daughter cells. The faster cells grow the more radioactive [^3H]-thymidine will be incorporated. Any compound that inhibits lymphocytes proliferation will reduce the uptake of radioactivity by the cells treated with it compared to the untreated controls.
The selected compounds were tested to determine its ability to inhibit [^3H]-thymidine incorporation and the results are set out in table 6 below. Resting peripheral blood mononuclear cells from healthy volunteers were seeded at 2×10^5 cells per well in medium (RPMI 1640 supplemented 10% fetal calf serum, 2 mM glutamine, 1 mM sodium pyruvate, 1% nonessential amino acids, 100 units/ml penicillin, 100 μg/ml streptomycin and 50 μM β-mercaptoethanol) in flat-bottom 96 well plates (final volume 200 μl). Cells were pre-incubated with the compound of example 2 for 60 min, and were stimulated with 5 ng/ml anti-CD3 Ab for 48 h. [^3H]-Thymidine (1 μCi per well) was added for the last 6 h. Cells were harvested onto glass fibre filters and radioactivity measured in a scintillation counter. All experiments were done in triplicate. Results are normalised for maximum [^3H]-thymidine incorporation by control.

Kv1.3, sequence (P22001 whole entry): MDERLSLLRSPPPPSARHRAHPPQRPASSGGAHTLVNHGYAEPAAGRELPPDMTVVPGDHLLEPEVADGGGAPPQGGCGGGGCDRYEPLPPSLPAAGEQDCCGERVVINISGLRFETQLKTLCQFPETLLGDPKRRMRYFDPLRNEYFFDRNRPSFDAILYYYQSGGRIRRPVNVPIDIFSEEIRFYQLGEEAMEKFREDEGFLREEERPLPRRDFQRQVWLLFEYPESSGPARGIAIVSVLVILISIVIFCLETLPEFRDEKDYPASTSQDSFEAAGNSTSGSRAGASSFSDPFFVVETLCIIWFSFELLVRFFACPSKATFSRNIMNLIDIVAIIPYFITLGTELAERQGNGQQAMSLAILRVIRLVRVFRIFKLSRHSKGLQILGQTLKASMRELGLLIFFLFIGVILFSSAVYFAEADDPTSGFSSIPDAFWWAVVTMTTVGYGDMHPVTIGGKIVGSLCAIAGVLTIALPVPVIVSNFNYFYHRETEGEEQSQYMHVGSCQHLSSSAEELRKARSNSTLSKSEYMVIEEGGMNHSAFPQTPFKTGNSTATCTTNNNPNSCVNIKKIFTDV

Structure (SMILES)	melting point [°C]	other results
COc1c(O)c(C(C)=O)c(OCc2cccc3ccccc23)c2ccoc12 [Compound 4]	96 to 98	
COc1c(O)c(C(C)=O)c(OCc2ccccc2)c2ccoc12 [Compound 6]	93 to 94	
COc1c2occc2cc2ccc(=O)oc12 [Compound 8-MOP, 8-Methoxypsoralen]		blocking activity on the Kv1.3 channel ([1]; result in words): exhibit blocking activity
COc1c(O)c(C(C)=O)c(OCCCc2ccccc2)c2ccoc12 [Compound 8]	94 to 95	
COc1c(O)c(C(C)=O)c(OCCCCc2ccccc2)c2ccoc12 [Compound 9]	121 to 122	
COc1c(O)c(C(C)=O)c(OCc2ccccc2F)c2ccoc12 [Compound 11]	105 to 108	
COc1c(O)c(C(C)=O)c(OCc2ccccc2Cl)c2ccoc12 [Compound 12]	84 to 86	
COc1c(O)c(C(C)=O)c(OCc2ccccc2C)c2ccoc12 [Compound 13]	101 to 103	
COc1c(O)c(C(C)=O)c(OCc2ccccc2-c2ccccc2)c2ccoc12 [Compound 14]	126 to 127	
COc1c(O)c(C(C)=O)c(OCc2cccc(F)c2)c2ccoc12 [Compound 15]	118 to 121	
COc1c(O)c(C(C)=O)c(OCc2cccc(Cl)c2)c2ccoc12 [Compound 16]	108 to 111	
COc1c(O)c(C(C)=O)c(OCc2cccc(C)c2)c2ccoc12 [Compound 17]	99 to 101	
COc1c(O)c(C(C)=O)c(OCc2cccc(OC(F)(F)F)c2)c2ccoc12 [Compound 19]	86 to 88	
COc1c(O)c(C(C)=O)c(OCc2cccc([N+](=O)[O-])c2)c2ccoc12 [Compound 20]	160 to 162	
COc1c(O)c(C(C)=O)c(OCc2ccc(F)cc2)c2ccoc12 [Compound 21]	100 to 102	
COc1c(O)c(C(C)=O)c(OCc2ccc(Cl)cc2)c2ccoc12 [Compound 22]	106 to 108	EC50 [2]: 2500 nM
COc1c(O)c(C(C)=O)c(OCc2ccc(C(F)(F)F)cc2)c2ccoc12 [Compound 24]	104 to 106	
COc1c(O)c(C(C)=O)c(OCc2ccc(C(C)C)cc2)c2ccoc12 [Compound 25]	73 to 75	
COc1c(O)c(C(C)=O)c(OCc2ccc(C(C)(C)C)cc2)c2ccoc12 [Compound 26]	82 to 87	
COc1c(O)c(C(C)=O)c(OCc2ccc(-c3ccccc3)cc2)c2ccoc12 [Compound 27]	163 to 167	

Structure (SMILES)	melting point [°C]	other results
COc1c(O)c(C(C)=O)c(OCc2ccc(OC(F)(F)F)cc2)c2ccoc12 [Compound 29]	130 to 131	
COc1c(O)c(C(C)=O)c(OCc2ccc(OCc3ccccc3)cc2)c2ccoc12 [Compound 30]	155 to 157	
COc1c(O)c(C(C)=O)c(OCc2ccc(C(=O)c3ccccc3)cc2)c2ccoc12 [Compound 31]	132 to 134	
COc1c(O)c(C(C)=O)c(OCc2ccc(C(=O)O)cc2)c2ccoc12 [Compound 32]	183 to 186	
COc1c(C(C)=O)c(O)c(OCc2ccc3ccccc3c2)c2occc12 [Compound 38]	114 to 115	
COc1c(C(C)=O)c(O)c(OCc2ccccc2)c2occc12 [Compound 39]	79 to 80	
COc1c(C(C)=O)c(O)c(OCCc2ccccc2)c2occc12 [Compound 40]	102 to 104	
COc1c(C(C)=O)c(O)c(OCCCc2ccccc2)c2occc12 [Compound 41]	36	EC50 [2]: 1000 nM
COc1c(C(C)=O)c(O)c(OCCCCc2ccccc2)c2occc12 [Compound 42]	28	
COc1c(C(C)=O)c(O)c(OCCCCCc2ccccc2)c2occc12 [Compound 43]	31 to 32	
COc1c(C(C)=O)c(O)c(OCc2ccccc2F)c2occc12 [Compound 44]	89 to 92	
COc1c(C(C)=O)c(O)c(OCc2ccccc2Cl)c2occc12 [Compound 45]	104 to 107	
COc1c(C(C)=O)c(O)c(OCc2ccccc2C)c2occc12 [Compound 46]	86 to 88	
COc1c(C(C)=O)c(O)c(OCc2ccccc2-c2ccccc2)c2occc12 [Compound 47]	115 to 117	
COc1c(C(C)=O)c(O)c(OCc2cccc(F)c2)c2occc12 [Compound 48]	89 to 91	
COc1c(C(C)=O)c(O)c(OCc2cccc(Cl)c2)c2occc12 [Compound 49]	105 to 108	
COc1c(C(C)=O)c(O)c(OCc2cccc(C)c2)c2occc12 [Compound 50]	81 to 82	
COc1c(C(C)=O)c(O)c(OCc2cccc([N+](=O)[O-])c2)c2occc12 [Compound 52]	157 to 159	
COc1c(C(C)=O)c(O)c(OCc2ccc(F)cc2)c2occc12 [Compound 53]	99 to 100	
COc1c(C(C)=O)c(O)c(OCc2ccc(Cl)cc2)c2occc12 [Compound 54]	110	

Structure (SMILES)	melting point [°C]	other results
COc1c(C(C)=O)c(O)c(OCc2ccc(Br)cc2)c2occc12 [Compound 55]	106 to 107	EC50 [2]: 2500 nM
COc1c(C(C)=O)c(O)c(OCc2ccc(C(F)(F)F)cc2)c2occc12 [Compound 56]	90 to 91	
COc1c(C(C)=O)c(O)c(OCc2ccc(C(C)C)cc2)c2occc12 [Compound 57]	80 to 83	
COc1c(C(C)=O)c(O)c(OCc2ccc(C(C)(C)C)cc2)c2occc12 [Compound 58]	117 to 118	
COc1c(C(C)=O)c(O)c(OCc2ccc(-c3ccccc3)cc2)c2occc12 [Compound 59]	126 to 127	
COc1c(C(C)=O)c(O)c(OCc2ccc(OCc3ccccc3)cc2)c2occc12 [Compound 61]	118 to 120	
COc1c(C(C)=O)c(O)c(OCc2ccc(C(=O)O)cc2)c2occc12 [Compound 63]	208 to 209	
CC(=O)c1c(O)c(OCc2ccccc2)c2occc2c1OCc1ccccc1 [Compound 82]	74 to 76	
COc1c(O)c(C(C)=O)c(OCCCCOc2c(C(C)=O)c(O)c(OC)c3occc23)c2ccoc12 [Compound 84]	209 to 211	
COc1c(O)c(C(C)=O)c(OCCCCCOc2c(C(C)=O)c(O)c(OC)c3occc23)c2ccoc12 [Compound 85]	139 to 141	
COc1c(O)c(C(C)=O)c(OCCCCCCOc2c(C(C)=O)c(O)c(OC)c3occc23)c2ccoc12 [Compound 86]	147 to 151	
COc1c(O)c(C(C)=O)c(OCCCCCCCOc2c(C(C)=O)c(O)c(OC)c3occc23)c2ccoc12 [Compound 87]	122 to 125	
COc1c(O)c(C(C)=O)c(OCc2cccc(COc3c(C(C)=O)c(O)c(OC)c4occc34)c2)c2ccoc12 [Compound 88]	184 to 186	
COc1c(O)c(C(C)=O)c(OCc2ccc(COc3c(C(C)=O)c(O)c(OC)c4occc34)cc2)c2ccoc12 [Compound 89]	201 to 203	
COc1c(C(C)=O)c(O)c(OCCCCCOc2c(O)c(C(C)=O)c(OC)c3ccoc23)c2occc12 [Compound 91]	132 to 134	
COc1c(C(C)=O)c(O)c(OCCCCCCOc2c(O)c(C(C)=O)c(OC)c3ccoc23)c2occc12 [Compound 92]	109 to 111	
COc1c(C(C)=O)c(O)c(OCc2cccc(COc3c(O)c(C(C)=O)c(OC)c4ccoc34)c2)c2occc12 [Compound 94]	125 to 128	
COc1c(C(C)=O)c(O)c(OCc2ccc(COc3c(O)c(C(C)=O)c(OC)c4ccoc34)cc2)c2occc12 [Compound 95]	184 to 186	
COc1c2occc2c(OCCCCc2ccccc2)c2c(=O)cc(C)oc12 [Compound 99]	121 to 122	
COc1c(C(C)=O)c(O)c(OC)c2occc12 [Khellinone]		blocking activity on the Kv1.3 channel [1]: exhibit blocking activity
